Series [1] concerns B8R-reactive CD8 T cells in immunized mice. The settings on record: 10 or 40 mg/kg daily, 7 days.
Series [2] deals with intracellular F-actin in human blood T cells. Kind of series: TCR-triggered actin polymerization (phalloidin staining). The format is cell-based. Particulars: T-cell, read-out: IC50 of inhibition of the anti-CD3 elicited increase of intracellular F-actin.
The subject of series [3] is EAE in MOG-immunized mice. The experiment in a line: EAE model, therapeutic treatment. The format is in vivo, mouse. The settings on record: oral, therapeutic setting.
In series [4] the test system is purified human blood T cells stimulated with anti-CD3. Kind of series: Microarray analysis of gene expression. The series is classed as cell-based. Particulars: 1 nM, anti-CD3 4 hours, two donors. The procedure: RNA was extracted using the RNAeasy kit according to the manufacturer's instructions (QIAGEN 74134) and its integrity was assessed using an Agilent 2100 Bioanalyzer (Agilent). Labelling and hybridization were performed according to the protocols from Affymetrix. Briefly, 100 ng of total RNA were amplified and labelled using the WT Plus reagent kit (Affymetrix) and then hybridized to Human Gene 2.0 ST Array (Affymetrix). Washing and scanning were performed using the Affymetrix GeneChip System (GeneChip Hybridization Oven 645, GeneChip Fluidics Station 450 and GeneChip Scanner 7G).

In series [5] the test system is Nck recruitment to the TCR. Kind of series: Co-immunoprecipitation of endogenous Nck with the TCR. The format is cell-based. The settings on record: human blood T cells stimulated with anti-CD3. The procedure: (§1) FIG. 2. Target specificity of AX-024. […] The experiment was repeated three times. […] RUs, response units.
For co-immunoprecipitation analysis of endogenous Nck, a total of […] enriched human blood T-cells were pre-incubated in serum-free RPMI medium with compound AX-024 before stimulation with soluble OKT3 (10 μg/ml) for 1 minute at 37° C. Cells were lysed as above, and immunoprecipitation was performed with OKT3 and protein A Sepharose beads. The resulting immunoprecipitated extracts were resolved in a 10% acrylamide SDS-PAGE gel for immunoblotting with a rabbit anti-Nck antibody and reprobed with anti-CD3ζ serum.

Series [6] relates to murine naïve spleen B cells. Kind of series: B cell proliferation (CellTrace Violet). The series is classed as cell-based, mouse. As to the method:
as §1
Proliferation was calculated according to the total number of cell divisions (by Cell-Trace Violet dilution).

The next series deals with CD-1 mice. The experiment in a line: Acute toxicity, single intraperitoneal injection. Particulars: single intraperitoneal injection 2.8, 14, 70, 350 mg/kg. The format is in vivo, mouse. From the text:
(§2) FIG. S7. Toxicity of AX-024 in mice and rats. (A) Effect of distinct single doses of AX024. HCl administered intraperitoneally on body weight gain of CD-1 mice over 14 days. The data represent the mean±s.e.m. (n=10 per group). (B) Effect of distinct single doses of AX024. HCl administered orally on body weight gain of Swiss albino mice over 14 days. The data represent the mean±s.e.m. (n=2 per group). (C) Effect of distinct single doses of AX-024. HCl administered per orally on body weight gain of Sprague Dawley rats over 14 days. The data represent the mean±s.e.m. (n=2 per group). (D) Summary of acute toxicological findings in different species and calculation of the human equivalent dose.
Acute toxicity: Eight-week-old CD-1 mice were injected intraperitoneally with different amounts of the hydrochloride salt of AX-024 (AX-024.HCl) dissolved in 0.5 ml of saline. All animals were observed clinically for the appearance of macroscopically visible adverse reactions twice daily over 14 days, as well as immediately after AX-024 administration. A necropsy was carried out on each animal on day 14, and the abdominal, thoracic, and cranial cavities were examined in situ, together with their associated organs.

In series [7] the target is CD3ε PRS peptide binding to immobilized SH3.1(Nck1) domain (Homo sapiens, UniProt P16333). The experiment in a line: Surface plasmon resonance. Particulars: SPR, maximum steady-state response units; read-out: IC50 for the inhibition of CD3ε peptide binding. The procedure:
as §1
HBS-EP was used as the running buffer (10 mM HEPES [pH 7.4], 150 mM NaCl, 3 mM EDTA, 0.005% [v/v] Surfactant P20). Immobilization of the GST-Nck1(SH3.1) purified recombinant protein (final concentration 30 μg/ml) was performed by the amino coupling strategy using sodium acetate (10 mM) at pH 4.5 and 150 μL of a solution of EDC/NHS (v/v), with optimum immobilization achieved at approximately 5000 resonance units. For interaction experiments, increasing concentrations of the CD3ε peptide […] and AX-024 were used on the same chip. In all cases, the flow rate was […]. After each interaction, 2.5 M glycine (pH 2) was used to regenerate the surface, and the analyte response after regeneration was constant after repeated injections in all the experiments and within ±10% of the response following the first injection.
Background: Surface plasmon resonance follows binding to a sensor surface in real time, without labels.

In another series the test system is ectromelia virus (ECTV). The settings on record: mouse, in vivo.
The subject of series [8] is thymocytes of 4 week-old C57BL/6 mice. The experiment in a line: Thymocyte differentiation in vivo. Particulars: administration for 10 days to 4-week-old mice. Details: species or system mouse. The procedure:
FIG. S8. Effect of AX-024 on thymocyte differentiation. (A) Flow cytometry analysis of CD24 and TCR expression in thymocytes of 4 week-old C57BL/6 mice exposed to daily doses of oral AX-024 (10 mg/Kg and 40 mg/Kg) or to vehicle alone for 10 consecutive days. Both markers allowed the thymocytes to be divided into five subpopulations (a to e) that were reanalyzed according to CD4 and CD8 expression (right). The data below indicates the percentages of double negative (DN, CD4^− CD8^−), double positive (DP, CD4^+ CD8^+) and single positive (CDSP, CD4^+ CD8^−; CD8SP. CD4^− CD8^+) thymocytes within each a-to-e subpopulation. The data represent the mean±s.e.m. (n=6 mice per group). (B) Absolute cell number in the major thymic DN, DP, CD4SP, CD8SP subpopulations of mice analyzed in A. Numbers of pre- and post-beta selection (DN3 and DN4) and γδT cells are also indicated

Series [9] deals with human peripheral blood T cells stimulated with anti-CD3. The experiment in a line: Human blood T cell proliferation induced by anti-CD3 (CFSE dilution). The format is cell-based.
A further series concerns Sprague Dawley rats. Kind of series: Toxicity after single oral dose, rats. The format is in vivo.
Source text: as §2

The subject of another series is Swiss albino mice. The experiment in a line: Toxicity after single oral dose, mice. The format is in vivo, mouse.
Source text: as §2

Counter-ions that a name gives are not always drawn.

As for `COc1ccc2c(c1)C(c1ccc(F)cc1)=C(CN1CCCC1)CO2` [AX-024.HCl], in series [1], the “activation of CD8 T cell response to the viral epitope (IFN-γ production)” value is on record as “Neither dose of the drug significantly inhibited”.

The term IC50 denotes the concentration that gives 50% inhibition. As to `COc1ccc2c(c1)C(c1ccc(F)cc1)=C(CN1CCCC1)CO2` [AX-024], the IC50 in series [2] is 1 nM. In addition, in series [3], the neurological score reached came out at 0. Moreover, the “number of genes transcriptionally downregulated” value in [4] was found to be 1093 genes. Also, the “concentrations at which Nck recruitment to the TCR was inhibited (dose-dependent)” value in series [5] is at least 1 nM. In addition, the “B cell proliferation induced by TLR4 agonist LPS” value in series [6] (LPS) was “not inhibited”. In addition, in series [6] (anti-CD40), the “B cell proliferation induced by anti-CD40” value was “not inhibited”. Further, the “BCR-triggered B cell proliferation” value in series [6] (anti-IgM stimulation, concentrations as high as 10 μM) is reported as “not inhibited”. The body weight gain result with CD-1 mice (14 days) is on record as “all mice gained weight at a similar rate”. In addition, in the series on CD-1 mice (followed 14 days), the adverse reactions entry is reported as “no significant adverse reactions”. Also, the concentration for half-maximal inhibition (IC50) in [7] was about 1 nM. Moreover, in the series with ectromelia virus (ECTV), the “percentage of IFN-γ responding CD8 T cells upon ex vivo B8R stimulation” value is “indistinguishable from that of the vehicle group”; the “survival of rechallenge with lethal dose 60 days later” value is “resisted the lethal dose, regardless of their AX-024 treatment history”; the “survival rates, first challenge” value was “did not influence survival rates”. Also, the thymocyte subset numbers entry in series [8] was “did not have a significant impact”. In addition, the “concentration at which inhibitory effects were shown” value in [9] (T cell proliferation, anti-CD3) is at most 1 pM. For the same compound, the “potency relative to the AX-000 hit in inhibition of TCR-triggered T cell proliferation” value in series [9] (more potent than AX-000) is reported as > 10,000 fold. Besides, the “toxicity for rodents after single administration” value in the series on Sprague Dawley rats (doses as high 1600 mg/kg) is listed as “not toxic”. Further, the “single oral doses without any adverse effects on body weight, organ size or lesions” value in the series on Sprague Dawley rats (rats, oral) is on record as at most 1600 mg/kg. In addition, the “single oral doses without any adverse effects on body weight, organ size or lesions” value in the series on Swiss albino mice is reported as at most 400 mg/kg.

In turn, `CCCCCCCCc1ccc(CCC(N)(CO)CO)cc1` [fingolimod, reference compound] returned a neurological score reached in series [3] of 0.

These data come from patent US20190231745A1, “INHIBITORS OF T CELL RECEPTOR AND USES THEREOF” (Consejo Superior De Investigaciones Cientificas, priority 2017, published 2019).
